Experimental data published in US8658604B2, “Template-fixed beta-hairpin peptidomimetics with protease inhibitory activity” (Polyphor Ltd, priority 2005, dated 2014).
Read-outs that look alike come from different tables or passages of the source. Where a SMILES comes first, the peptide text is derived from it.

Assays:
[1] = target: Trypsin, from human pancreas (Homo sapiens, UniProt P07477); assay: Enzymatic assay, trypsin
Chymase, from human skin = target: T1, Chymase, from human skin (Homo sapiens, UniProt P23946); assay: Enzymatic assay, chymase
T1 sequence (P23946 22-247): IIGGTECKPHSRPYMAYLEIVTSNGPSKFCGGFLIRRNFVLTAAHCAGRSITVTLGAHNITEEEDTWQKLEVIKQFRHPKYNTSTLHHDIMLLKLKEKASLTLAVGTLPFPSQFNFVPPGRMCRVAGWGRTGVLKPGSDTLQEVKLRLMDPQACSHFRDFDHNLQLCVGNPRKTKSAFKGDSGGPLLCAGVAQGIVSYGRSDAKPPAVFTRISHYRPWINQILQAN

[2] = target: T2, Elastase from human neutrophils (Homo sapiens, UniProt P08246); assay: Enzymatic assay, elastase; conditions: for Elastase at 100 μM %: at 100 μM (stated in cell instead of IC50)
T2 sequence (P08246 30-267): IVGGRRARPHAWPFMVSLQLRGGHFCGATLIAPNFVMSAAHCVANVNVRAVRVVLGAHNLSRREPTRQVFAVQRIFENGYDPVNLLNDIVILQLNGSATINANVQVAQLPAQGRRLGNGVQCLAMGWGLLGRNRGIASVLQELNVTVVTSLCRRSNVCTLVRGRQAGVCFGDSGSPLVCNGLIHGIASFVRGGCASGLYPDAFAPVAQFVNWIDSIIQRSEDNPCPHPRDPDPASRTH

[3] = target: T3, CathepsinG, from human neutrophils (Homo sapiens, UniProt P08311); assay: Enzymatic assay, cathepsin G
T3 sequence (P08311 21-244): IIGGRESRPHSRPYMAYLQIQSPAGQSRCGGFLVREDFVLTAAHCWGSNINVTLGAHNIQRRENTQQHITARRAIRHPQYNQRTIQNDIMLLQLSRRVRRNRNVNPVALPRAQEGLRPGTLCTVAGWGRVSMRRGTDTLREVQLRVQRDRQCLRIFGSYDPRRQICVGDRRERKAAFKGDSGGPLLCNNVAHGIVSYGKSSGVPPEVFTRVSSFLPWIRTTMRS

[4] = target: Chymotrypsin, from human pancreas (Homo sapiens, UniProt P17538); assay: Enzymatic assay, chymotrypsin
[5] = target: Thrombin, from Human Plasma (Homo sapiens, UniProt P00734); assay: Enzymatic assay, thrombin
[6] = system: Tryptase, from human lung; assay: Enzymatic assay, tryptase; conditions: at 100 μM
[7] = target: Urokinase from human urine (Homo sapiens, UniProt P00749); assay: Enzymatic assay, urokinase

Chymotrypsin, from human pancreas, sequence (P17538 19-263): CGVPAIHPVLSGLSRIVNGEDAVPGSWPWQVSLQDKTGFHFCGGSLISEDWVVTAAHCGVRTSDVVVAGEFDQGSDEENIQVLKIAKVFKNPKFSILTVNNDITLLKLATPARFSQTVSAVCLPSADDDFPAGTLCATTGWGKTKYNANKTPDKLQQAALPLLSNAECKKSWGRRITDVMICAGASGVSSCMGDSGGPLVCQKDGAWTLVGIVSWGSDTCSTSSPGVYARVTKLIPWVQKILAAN

SMILES	Trypsin at 100 μM % [1] [%]	Chymase at 100 μM % (Chymase, from human skin) [%]	Elastase at 100 μM % [2] [at %]	IC50 ([3]; Cathepsin G IC50) [nM]	Chymotrypsin at 100 μM % [4] [%]	IC50 ([2]; Elastase IC50) [nM]	also measured
CCCC[C@@H]1NC(=O)[C@H](CCCNC(=N)N)NC(=O)[C@@H]2CCCN2C(=O)[C@H]2CCCN2C(=O)[C@H](Cc2ccccc2)NC(=O)[C@H](CCCC)NC(=O)[C@H]([C@@H](C)CC)NC(=O)[C@@H]2CCCN2C(=O)[C@@H]2CCCN2C(=O)[C@H](CC(=O)O)NC(=O)[C@H](CO)NC(=O)[C@H](CCCCN)NC(=O)[C@H]([C@@H](C)O)NC1=O [Ex. 8] (HELM PEPTIDE1{R.[Nle].T.K.S.D.P.P.I.[Nle].F.[dP].P}$PEPTIDE1,PEPTIDE1,1:R1-13:R2$$$V2.0)	74.2	71.7	0.8	126	5.6	–	–
CCCC[C@@H]1NC(=O)[C@@H]2CCCN2C(=O)[C@H]2CCCN2C(=O)[C@H](CO)NC(=O)[C@@H]2CSSC[C@H](NC1=O)C(=O)N[C@@H]([C@@H](C)O)C(=O)N[C@@H](CCCCN)C(=O)N[C@@H](CO)C(=O)N[C@@H](CC(=O)O)C(=O)N1CCC[C@H]1C(=O)N1CCC[C@H]1C(=O)N[C@@H]([C@@H](C)CC)C(=O)N2 [Ex. 10] (HELM PEPTIDE1{[Nle].C.T.K.S.D.P.P.I.C.S.[dP].P}$PEPTIDE1,PEPTIDE1,2:R3-10:R3|PEPTIDE1,PEPTIDE1,1:R1-13:R2$$$V2.0)	89.9	9.4	0.3	75	–	–	–
CC[C@H](C)[C@@H]1NC(=O)[C@@H]2CCCN2C(=O)[C@@H]2CCCN2C(=O)[C@H](CC(=O)O)NC(=O)[C@H](CO)NC(=O)[C@H](CCCCN)NC(=O)[C@H]([C@@H](C)O)NC(=O)[C@@H]2CSSC[C@H](NC1=O)C(=O)N[C@@H](CO)C(=O)N1CCC[C@@H]1C(=O)N1CCC[C@H]1C(=O)N[C@@H](C1CCCCC1)C(=O)N2 [Ex. 11] (HELM PEPTIDE1{[O=C([C@@H](N[*:1])C1CCCCC1)[*:2]].C.T.K.S.D.P.P.I.C.S.[dP].P}$PEPTIDE1,PEPTIDE1,2:R3-10:R3|PEPTIDE1,PEPTIDE1,1:R1-13:R2$$$V2.0)	6.5	12.1	19	95	73.6	–	–
CC[C@H](C)[C@@H]1NC(=O)[C@@H]2CCCN2C(=O)[C@@H]2CCCN2C(=O)[C@H](CC(=O)O)NC(=O)[C@H](CO)NC(=O)[C@H](CCCCN)NC(=O)[C@H]([C@@H](C)O)NC(=O)[C@@H]2CSSC[C@H](NC1=O)C(=O)N[C@@H](CCCNC(=N)N)C(=O)N1CCC[C@@H]1C(=O)N1CCC[C@H]1C(=O)N[C@@H](Cc1ccccc1Cl)C(=O)N2 [Ex. 13] (HELM PEPTIDE1{[O=C([C@H](Cc1ccccc1Cl)N[*:1])[*:2]].C.T.K.S.D.P.P.I.C.R.[dP].P}$PEPTIDE1,PEPTIDE1,2:R3-10:R3|PEPTIDE1,PEPTIDE1,1:R1-13:R2$$$V2.0)	95.0	19.9	8.2	100	–	–	–
CC[C@H](C)[C@@H]1NC(=O)[C@@H]2CCCN2C(=O)[C@@H]2CCCN2C(=O)[C@H](CC(=O)O)NC(=O)[C@H](CN)NC(=O)[C@H](CCCCN)NC(=O)[C@H]([C@@H](C)O)NC(=O)[C@@H]2CSSC[C@H](NC1=O)C(=O)N[C@@H](CO)C(=O)N1CCC[C@@H]1C(=O)N1CCC[C@H]1C(=O)N[C@@H](Cc1ccccc1)C(=O)N2 [Ex. 25] (HELM PEPTIDE1{F.C.T.K.[NC[C@H](N[*:1])C(=O)[*:2]].D.P.P.I.C.S.[dP].P}$PEPTIDE1,PEPTIDE1,2:R3-10:R3|PEPTIDE1,PEPTIDE1,1:R1-13:R2$$$V2.0)	89.3	10.0	3.2	102	–	–	–
CC[C@H](C)[C@@H]1NC(=O)[C@@H]2CCCN2C(=O)[C@@H]2CCCN2C(=O)[C@H](CC(=O)O)NC(=O)[C@H](CO)NC(=O)[C@H](CCCCN)NC(=O)[C@H]([C@@H](C)O)NC(=O)[C@@H]2CSSC[C@H](NC1=O)C(=O)N[C@@H](CO)C(=O)N[C@H](C)C(=O)N1CCC[C@H]1C(=O)N[C@@H](Cc1ccccc1)C(=O)N2 [Ex. 49] (HELM PEPTIDE1{F.C.T.K.S.D.P.P.I.C.S.[dA].P}$PEPTIDE1,PEPTIDE1,2:R3-10:R3|PEPTIDE1,PEPTIDE1,1:R1-13:R2$$$V2.0)	96	0	–	82	0	> 10000	Thrombin at 100 μM % [5]: 7.9%; Tryptase at 100 μM % [6]: 30.5%; Urokinase at 100 μM % [7]: 6.2%
CCCC[C@@H]1NC(=O)[C@@H]2CCCN2C(=O)[C@H]2CCCN2C(=O)[C@H](Cc2ccc(O)cc2)NC(=O)[C@@H]2CSSC[C@H](NC1=O)C(=O)N[C@@H]([C@@H](C)O)C(=O)N[C@@H](C)C(=O)N[C@@H](CO)C(=O)N[C@@H](CC1CCCCC1)C(=O)N1CCC[C@H]1C(=O)N1CCC[C@H]1C(=O)N[C@@H](CCC(N)=O)C(=O)N2 [Ex. 82] (HELM PEPTIDE1{[Nle].C.T.A.S.[Cha].P.P.Q.C.Y.[dP].P}$PEPTIDE1,PEPTIDE1,2:R3-10:R3|PEPTIDE1,PEPTIDE1,1:R1-13:R2$$$V2.0)	–	–	–	–	–	18	Tryptase at 100 μM % [6]: 44.5%; IC50 [4]: 72.9 nM
CCCC[C@@H]1NC(=O)[C@@H]2CCCN2C(=O)[C@H]2CCCN2C(=O)[C@H](Cc2ccc(O)cc2)NC(=O)[C@@H]2CSSC[C@H](NC1=O)C(=O)N[C@@H]([C@@H](C)O)C(=O)N[C@@H](C)C(=O)N[C@@H](CO)C(=O)N[C@@H]([C@@H](C)CC)C(=O)N1CCC[C@H]1C(=O)N1CCC[C@H]1C(=O)N[C@@H](CCC(N)=O)C(=O)N2 [Ex. 179] (HELM PEPTIDE1{[Nle].C.T.A.S.I.P.P.Q.C.Y.[dP].P}$PEPTIDE1,PEPTIDE1,2:R3-10:R3|PEPTIDE1,PEPTIDE1,1:R1-13:R2$$$V2.0)	–	–	–	–	76.0	50	IC50 [1]: > 100000 nM; Tryptase At 100 μM % [6]: 0%
C[C@@H](O)[C@@H]1NC(=O)[C@@H]2CSSC[C@H](NC(=O)[C@H](CC3CCCCC3)NC(=O)[C@@H]3CCCN3C(=O)[C@@H]3CCCN3C(=O)[C@H](CC(=O)O)NC(=O)[C@H](CO)NC(=O)[C@H](CCCCN)NC1=O)C(=O)N[C@@H](CO)C(=O)N1CCC[C@@H]1C(=O)N1CCC[C@H]1C(=O)N[C@@H](Cc1ccccc1)C(=O)N2 [compound 54] (HELM PEPTIDE1{F.C.T.K.S.D.P.P.[Cha].C.S.[dP].P}$PEPTIDE1,PEPTIDE1,2:R3-10:R3|PEPTIDE1,PEPTIDE1,1:R1-13:R2$$$V2.0)	90	12.9	–	–	18	–	IC50 ([2]; read-out: Elastase IC50): > 100000 nM; Urokinase at 100 μM % [7]: 3.2%; IC50 ([3]; read-out: Cathepsin G IC50): 66 nM
CCCC[C@@H]1NC(=O)[C@H](Cc2ccccc2)NC(=O)[C@H]2CCCN2C(=O)[C@H](Cc2ccc(O)cc2)NC(=O)[C@@H]2CSSC[C@H](NC1=O)C(=O)N[C@@H]([C@@H](C)O)C(=O)N[C@@H](C)C(=O)N[C@@H](CO)C(=O)N[C@@H]([C@@H](C)CC)C(=O)N1CCC[C@H]1C(=O)N1CCC[C@H]1C(=O)N[C@@H](CCC(N)=O)C(=O)N2 [compound 167] (HELM PEPTIDE1{[Nle].C.T.A.S.I.P.P.Q.C.Y.[dP].F}$PEPTIDE1,PEPTIDE1,2:R3-10:R3|PEPTIDE1,PEPTIDE1,1:R1-13:R2$$$V2.0)	–	–	–	–	60.2	–	Tryptase At 100 μM % [6]: 0.2%
